{
  "source": "patent US9655840B2",
  "about": "“Wound care products” (RIGSHOSPITALET, COPENHAGEN UNIVERSITY HOSPITAL, priority 2009, dated 2017)",
  "key": {"[1]": {"system": "P. aeruginosa PAO1 biofilm", "assay": "continuous flow chamber biofilm, 3-day-old, harvested and plated on LB plates for viability", "assay_type": "cell-based", "from_the_text": "(§1) The wild-type P. aeruginosa PAO1 used for the planktonic and biofilm experiments was obtained from the Pseudomonas Genetic Stock Center (www.pseudomonas.med.ecu.edu, strain PAO0001). The wild-type S. aureus 8325-4, used for planktonic and biofilm experiments was described by Novick, R. P. 1967. For plating, Luria broth (LB) medium mix with 2.0% agar was used. For all experiments including bacterial biofilms, AB minimal medium supplemented with glucose was used except if different is mentioned. […] The continuous flow system is based on once through flow chambers perfused with sterile AB minimal medium containing 0.3 mM glucose as described by Christensen et al. (1999). Continuous flow biofilm tolerance to acetic acid was assessed by growing P. aeruginosa or S. aureus biofilms for three days, then subsequently at day three to four supplementing the AB minimal medium with different concentrations of acetic acid or HCl (HCL served as a as control to acetic acid treatments). […] Due to the buffer capacity of the AB minimal medium used, the pH of the solution became 4.33. […] After the treatment the biofilm biomasses were harvested mechanically from the flow chambers and plated on LB plates for determination of viability. […] The kinetics of antimicrobial activity against mature biofilms was tested by treating a 3-day-old continuous flow chamber biofilms of either P. aeruginosa with 0.5% or S. aureus with 1.0% acetic acid for 24 hours. Due to the buffer capacity of the AB minimal medium used the pH of the solution became 4.33. […] After the treatment the biofilms were harvested mechanically, by scraping with a sterile scalpel, from the flow chambers and plated on LB plates for determination of viable counts."}, "P. aeruginosa biofilm": {"system": "P. aeruginosa biofilm", "assay": "static 24 hour old biofilm in microtiter dishes, CFU after treatment", "assay_type": "cell-based", "settings": "for antimicrobial effect on static biofilm (CFU): 0.5% acetic acid; for synergistic antimicrobial effect in combination with acetic acid: combined with 0.5% acetic acid, static biofilm", "from_the_text": "AB minimal medium without acetic acid adjusted to different pH values was used as control.\nAB minimal medium supplemented with increasing concentrations of tobramycin served as control. The biofilm were harvested and plated on LB plates to determine the CFU after treatment (For visual appearance “no growth” is arbitrarily given a CFU value of 2).\nAB minimal medium without acetic acid, but supplemented with increasing concentrations of tobramycin served as control.\nThe wild-type P. aeruginosa PAO1 used for the planktonic and biofilm experiments was obtained from the Pseudomonas Genetic Stock Center (www.pseudomonas.med.ecu.edu, strain PAO0001). The wild-type S. aureus 8325-4, used for planktonic and biofilm experiments was described by Novick, R. P. 1967.\nFor plating, Luria broth (LB) medium mix with 2.0% agar was used. For all experiments including bacterial biofilms, AB minimal medium supplemented with glucose was used except if different is mentioned.\nPlanktonic cultures were grown in shake flasks at 37° C.\nStatic biofilm tolerance to acetic acid was assessed by exchanging the AB minimal medium of 24 h old biofilms with AB minimal medium supplemented with different concentrations of acetic acid or HCl as control. To raise the pH of either acetic acid or HCl, NaOH was added in different concentrations.\nTo elucidate a synergistic antimicrobial effect of acetic acid and antibiotics, static biofilms of P. aeruginosa were grown for 24 hours prior to subsequent treatment with increasing concentrations of tobramycin and 0.5% acetic acid in the pH interval 3-6.85. The pH was adjusted by supplementing the AB minimal medium with either HCl or NaOH."}, "[2]": {"system": "clinical mucoid P. aeruginosa isolate biofilm"}, "[3]": {"system": "clinical non-mucoid P. aeruginosa isolate biofilm"}, "S. aureus 8325-4 biofilm": {"system": "S. aureus 8325-4 biofilm", "from_the_text": "as §1"}, "[4]": {"settings": "0.5% acetic acid, 24 hours, AB minimal medium, pH 4.33"}, "[5]": {"settings": "1.0% acetic acid, 24 hours, AB minimal medium, pH 4.33"}},
  "note": "Where a name gives a salt, the structure may show the parent alone. Read-outs that look alike come from different tables or passages of the source.",
  "data": [
    {"compound": "Cl", "note": "[HCl, reference compound]", "values": [
      {"measurement": "eradication of mature biofilm (viability by plating)", "setting": "[1]; AB minimal medium adjusted to pH 4.33 using HCl, 24 hours (control)", "result": "had no effect"}
    ]},
    {"compound": "CC(=O)O", "note": "[acetic acid]", "values": [
      {"measurement": "eradication of mature biofilm (viability by plating)", "setting": "[1]; 0.5% acetic acid in sterile miliQ water", "result": "Complete eradication"},
      {"measurement": "eradication of mature biofilm (viability by plating)", "setting": "[1]; [4]", "result": "completely eradicated"},
      {"measurement": "time to complete killing of all bacteria", "setting": "[1]; 0.5% acetic acid, AB minimal medium, pH 4.33", "result": 3, "unit": "h"},
      {"measurement": "eradication of mature biofilm (viability by plating)", "setting": "[1]; [5]", "result": "completely eradicated"},
      {"measurement": "antibacterial effect on static biofilm (CFU)", "setting": "P. aeruginosa biofilm; 0.5% acetic acid alone, pH 6.85", "result": "no antibacterial effect"},
      {"measurement": "antimicrobial effect on static biofilm (CFU)", "setting": "P. aeruginosa biofilm; pH 5", "result": "reduced effect"},
      {"measurement": "antimicrobial effect on static biofilm (CFU)", "setting": "P. aeruginosa biofilm; pH 5.5 and above", "result": "no effect"},
      {"measurement": "antimicrobial effect on static biofilm (CFU)", "setting": "P. aeruginosa biofilm; pH interval 3-4.76", "result": "eradicated biofilms"},
      {"measurement": "eradication of biofilm", "setting": "[2]", "result": "eradicates the biofilms"},
      {"measurement": "eradication of biofilm", "setting": "[3]", "result": "eradicates the biofilms"},
      {"measurement": "eradication of mature biofilm (viability by plating)", "setting": "S. aureus 8325-4 biofilm; [4]", "result": "reduced the number of viable cells"},
      {"measurement": "eradication of mature biofilm (viability by plating)", "setting": "S. aureus 8325-4 biofilm; 1.0% acetic acid in sterile miliQ water", "result": "Complete eradication"},
      {"measurement": "eradication of mature biofilm (viability by plating)", "setting": "S. aureus 8325-4 biofilm; [5]", "result": "complete eradication"},
      {"measurement": "time to complete killing of all bacteria", "setting": "S. aureus 8325-4 biofilm; 1.0% acetic acid, AB minimal medium, pH 4.33", "result": 3, "unit": "h"}
    ]},
    {"compound": "O=C(O)c1cn(C2CC2)c2cc(N3CCNCC3)c(F)cc2c1=O", "note": "[ciprofloxaxine, reference compound]", "values": [
      {"measurement": "synergistic antimicrobial effect in combination with acetic acid", "setting": "P. aeruginosa biofilm", "result": "analogous synergistic effects"}
    ]},
    {"compound": "NC[C@H]1O[C@H](O[C@H]2[C@H](O)[C@@H](O[C@H]3O[C@H](CO)[C@@H](O)[C@H](N)[C@H]3O)[C@H](N)C[C@@H]2N)[C@H](N)C[C@@H]1O", "note": "[tobramycin, reference compound]", "values": [
      {"measurement": "reduction of bacterial viability", "setting": "P. aeruginosa biofilm; tobramycin alone, concentrations above 12.5 μg/ml", "result": 5, "unit": "fold"}
    ]},
    {"compound": "colistin [reference compound]", "values": [
      {"measurement": "synergistic antimicrobial effect in combination with acetic acid", "setting": "P. aeruginosa biofilm", "result": "analogous synergistic effects"}
    ]}
  ]
}
